pKi: −log10 of the molar value.
Legend:
HIV-1 protease [1] = target: T1, HIV-1 protease (Human immunodeficiency virus type 1 group M subtype B, UniProt P04585); experiment: biochemical; details: read-out: HIV-1 FITC KI
Method in brief: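 Ki from two-fold serial inhibitor dilutions (24–48 concentrations) with 40 nM HIV-1 protease stock and 200 μM substrate stock, 90 min at room temperature; stopped with avidin beads. Reference inhibitor run in parallel; Ki by nonlinear least-squares fit.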

HIV-1 protease [2] = target: T1, HIV-1 protease; experiment: biochemical; details: for inhibition at 0.123 µM: read-out: HIV-1 Protease % Inhib, dose 0.123 uM; for inhibition at 0.37 µM: read-out: HIV-1 Protease % Inhib, dose 0.370 uM; for inhibition at 1.1 µM: read-out: HIV-1 Protease % Inhib, dose 1.100 uM; for inhibition at 3.3 µM: read-out: HIV-1 Protease % Inhib, dose 3.300 uM; for inhibition at 10 µM: read-out: HIV-1 Protease % Inhib, dose 10.000 uM; for inhibition at 30 µM: read-out: HIV-1 Protease % Inhib, dose 30.000 uM
Method in brief: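 Biotinylated, FITC-labeled peptide substrate (20 μl of 0.2 μM) incubated with HIV-1 protease (10 μl of 0.1 μM) and compound in 0.1 M sodium acetate pH 5.5, 1.0 M NaCl, 0.05% NP-40, 1 h, room temperature, dark. Streptavidin beads then capture uncleaved substrate; filtered labeled product read by fluorescence, giving percent inhibition.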

O=c1oc2c(c(O)c1C(c1cccc(NS(=O)(=O)c3ccc(NO)cc3)c1)C1CC1)CCCCCC2 (centres unmarked) [Example 348 (Second Title Compound), N-[3-[cyclopropyl(5,6,7,8,9,10-hexahydro-4-hydroxy-2-oxo-2H-cycloocta[b]pyran-3-yl)methyl]phenyl]4-(hydroxyamino)-benzenesulfonamide]
pKi (HIV-1 protease [1]): 8.77 | inhibition at 0.123 µM (HIV-1 protease [2]): 38.6% | inhibition at 0.37 µM (HIV-1 protease [2]): 81% | inhibition at 1.1 µM (HIV-1 protease [2]): 102% | inhibition at 3.3 µM (HIV-1 protease [2]): 109% | inhibition at 10 µM (HIV-1 protease [2]): 113% | inhibition at 30 µM (HIV-1 protease [2]): 98.7%

O=c1oc2c(c(O)c1C(c1cccc(NS(=O)(=O)c3ccc(NS(=O)(=O)c4ccccc4)cc3)c1)C1CC1)CCCCCC2 (centres unmarked) [Example 349, N-[3-[Cyclopropyl(5,6,7,8,9,10-hexahydro-4-hydroxy-2-oxo-2H-cycloocta[b]pyran-3-yl)methyl]phenyl]4-[(phenylsulfonyl)amino]-benzenesulfonamide]
pKi (HIV-1 protease [1]): 7.47 | inhibition at 0.37 µM (HIV-1 protease [2]): 38.4% | inhibition at 1.1 µM (HIV-1 protease [2]): 69% | inhibition at 3.3 µM (HIV-1 protease [2]): 86.4% | inhibition at 10 µM (HIV-1 protease [2]): 96.7% | inhibition at 30 µM (HIV-1 protease [2]): 88.5%

O=c1oc2c(c(O)c1C(c1cccc(NS(=O)(=O)c3cccc(NS(=O)(=O)c4ccccc4)c3)c1)C1CC1)CCCCCC2 (centres unmarked) [Example 350, N-[3-[Cyclopropyl(5,6,7,8,9,10-hexahydro-4-hydroxy-2-oxo-2H-cycloocta[b]pyran-3-yl)methyl]phenyl]-3-[(phenylsulfonyl)amino]-benzenesulfonamide]
pKi (HIV-1 protease [1]): 8.18 | inhibition at 0.123 µM (HIV-1 protease [2]): 22.2% | inhibition at 0.37 µM (HIV-1 protease [2]): 64.3% | inhibition at 1.1 µM (HIV-1 protease [2]): 82.2% | inhibition at 3.3 µM (HIV-1 protease [2]): 98.3% | inhibition at 10 µM (HIV-1 protease [2]): 102% | inhibition at 30 µM (HIV-1 protease [2]): 101%

O=C(Nc1cccc(S(=O)(=O)Nc2cccc(C(c3c(O)c4c(oc3=O)CCCCCC4)C3CC3)c2)c1)c1ccccc1 (centres unmarked) [Example 351, N-[3-[[[3-[Cyclopropyl(5,6,7,8,9,10-hexahydro4-hydroxy-2-oxo-2H-cycloocta[b]pyran-3-yl)methyl]phenyl]amino]sulfonyl]phenyl]-benzamide]
pKi (HIV-1 protease [1]): 7.79 | inhibition at 0.123 µM (HIV-1 protease [2]): 11.2% | inhibition at 0.37 µM (HIV-1 protease [2]): 49.3% | inhibition at 1.1 µM (HIV-1 protease [2]): 76.6% | inhibition at 3.3 µM (HIV-1 protease [2]): 93.9% | inhibition at 10 µM (HIV-1 protease [2]): 97.8% | inhibition at 30 µM (HIV-1 protease [2]): 95.8%

CN(C)c1ccc(S(=O)(=O)Nc2cccc(C(c3c(O)c4c(oc3=O)CCCCCC4)C3CC3)c2)cc1 (centres unmarked) [Example 352, N-[3-[Cyclopropyl(5,6,7,8,9,10-hexahydro-4-hydroxy-2-oxo-2H-cycloocta[b]pyran-3-yl)methyl]phenyl]-4-(dimethylamino)-benzenesulfonamide]
pKi (HIV-1 protease [1]): 8.55 | inhibition at 0.123 µM (HIV-1 protease [2]): 49.7% | inhibition at 0.37 µM (HIV-1 protease [2]): 78.5% | inhibition at 1.1 µM (HIV-1 protease [2]): 97.9% | inhibition at 3.3 µM (HIV-1 protease [2]): 104% | inhibition at 10 µM (HIV-1 protease [2]): 102% | inhibition at 30 µM (HIV-1 protease [2]): 94.6%

Nc1cccc(S(=O)(=O)Nc2cccc(C(c3c(O)c4c(oc3=O)CCCCCC4)C3CC3)c2)c1 (centres unmarked) [Example 353 (First Title Compound), 3-Amino-N-[3-[cyclopropyl(5,6,7,8,9,10-hexahydro-4-hydroxy-2-oxo-2H-cycloocta[b]pyran-3-yl)methyl]phenyl]-benzenesulfonamide]
pKi (HIV-1 protease [1]): 8.65 | inhibition at 0.123 µM (HIV-1 protease [2]): 48.6% | inhibition at 0.37 µM (HIV-1 protease [2]): 83.1% | inhibition at 1.1 µM (HIV-1 protease [2]): 92.7% | inhibition at 3.3 µM (HIV-1 protease [2]): 97.3% | inhibition at 10 µM (HIV-1 protease [2]): 103% | inhibition at 30 µM (HIV-1 protease [2]): 92.9%

O=c1oc2c(c(O)c1C(c1cccc(NS(=O)(=O)c3cccc(NO)c3)c1)C1CC1)CCCCCC2 (centres unmarked) [Example 353 (Second Title Compound), N-[3-[Cyclopropyl(5,6,7,8,9, 10-hexahydro-4-hydroxy-2-oxo-2H-cycloocta[b]pyran-3-yl)methyl]phenyl]-3-(hydroxyamino)-benzenesulfonamide]
pKi (HIV-1 protease [1]): 8.62 | inhibition at 0.123 µM (HIV-1 protease [2]): 61.4% | inhibition at 0.37 µM (HIV-1 protease [2]): 92.7% | inhibition at 1.1 µM (HIV-1 protease [2]): 103% | inhibition at 3.3 µM (HIV-1 protease [2]): 110% | inhibition at 10 µM (HIV-1 protease [2]): 113% | inhibition at 30 µM (HIV-1 protease [2]): 107%

COC(=O)c1cccc(S(=O)(=O)Nc2cccc(C(c3c(O)c4c(oc3=O)CCCCCC4)C3CC3)c2)c1 (centres unmarked) [Example 354, 3-[[[3-[Cyclopropyl(5,6,7,8,9,10-hexahydro-4-hydroxy-2-oxo-2H-cycloocta[b]pyran-3-yl)methyl]phenyl]amino]sulfonyl]-benzoic acid, methyl ester]
pKi (HIV-1 protease [1]): 8.84 | inhibition at 0.123 µM (HIV-1 protease [2]): 71.4% | inhibition at 0.37 µM (HIV-1 protease [2]): 86.4% | inhibition at 1.1 µM (HIV-1 protease [2]): 96.1% | inhibition at 3.3 µM (HIV-1 protease [2]): 100% | inhibition at 10 µM (HIV-1 protease [2]): 103% | inhibition at 30 µM (HIV-1 protease [2]): 108%

O=c1oc2c(c(O)c1C(c1cccc(NS(=O)(=O)c3cccc(NCCO)c3)c1)C1CC1)CCCCCC2 (centres unmarked) [Example 355 (First Title Compound), N-[3-[Cyclopropyl(5,6,7,8,9,10-hexahydro4-hydroxy-2-oxo-2H-cycloocta[b]pyran-3-yl)methyl]phenyl]-3-[(2-ethanol)amino]-benzenesulfonamide]
pKi (HIV-1 protease [1]): 8.67 | inhibition at 0.123 µM (HIV-1 protease [2]): 117% | inhibition at 0.37 µM (HIV-1 protease [2]): 117% | inhibition at 1.1 µM (HIV-1 protease [2]): 115% | inhibition at 3.3 µM (HIV-1 protease [2]): 103% | inhibition at 10 µM (HIV-1 protease [2]): 72.6% | inhibition at 30 µM (HIV-1 protease [2]): 61.9%

O=c1oc2c(c(O)c1C(c1cccc(NS(=O)(=O)c3cccc(N(CCO)CCO)c3)c1)C1CC1)CCCCCC2 (centres unmarked) [Example 355 (Second Title Compound), N-[3-[Cyclopropyl(5,6,7,8,9,10-hexahydro-4-hydroxy-2-oxo-2H-cycloocta[b]pyran-3-yl)methyl]phenyl]-3-[(bis-(2-ethanol))amino]-benzenesulfonamide]
pKi (HIV-1 protease [1]): 8.97 | inhibition at 0.123 µM (HIV-1 protease [2]): 112% | inhibition at 0.37 µM (HIV-1 protease [2]): 111% | inhibition at 1.1 µM (HIV-1 protease [2]): 107% | inhibition at 3.3 µM (HIV-1 protease [2]): 110% | inhibition at 10 µM (HIV-1 protease [2]): 110% | inhibition at 30 µM (HIV-1 protease [2]): 108%

O=c1oc2c(c(O)c1C(c1cccc(NS(=O)(=O)c3cccc(CO)c3)c1)C1CC1)CCCCCC2 (centres unmarked) [Example 356, N-[3-[Cyclopropyl(5,6,7,8,9,10-hexahydro-4-hydroxy-2-oxo-2H-cycloocta[b]pyran-3-yl)methyl]phenyl]-3-[methanol]-benzenesulfonamide]
pKi (HIV-1 protease [1]): 8.88 | inhibition at 0.123 µM (HIV-1 protease [2]): 97.7% | inhibition at 0.37 µM (HIV-1 protease [2]): 97.2% | inhibition at 1.1 µM (HIV-1 protease [2]): 97.9% | inhibition at 3.3 µM (HIV-1 protease [2]): 101% | inhibition at 10 µM (HIV-1 protease [2]): 102% | inhibition at 30 µM (HIV-1 protease [2]): 100%

O=c1oc2c(c(O)c1C(c1cccc(NS(=O)(=O)c3cccc(N4CCCS4(=O)=O)c3)c1)C1CC1)CCCCCC2 (centres unmarked) [Example 357, N-[3-[Cyclopropyl[3-(2-isothiazolidinyl)phenyl]methyl-(5,6,7,8,9,10-hexahydro4-hydroxy-S,S'-dioxide)methyl]phenyl]-3-[(phenylsulfonyl)amino]4-2H-cycloocta[b]pyran2-one]
pKi (HIV-1 protease [1]): 9.21 | inhibition at 0.123 µM (HIV-1 protease [2]): 104% | inhibition at 0.37 µM (HIV-1 protease [2]): 97.2% | inhibition at 1.1 µM (HIV-1 protease [2]): 101% | inhibition at 3.3 µM (HIV-1 protease [2]): 98.3% | inhibition at 10 µM (HIV-1 protease [2]): 96.8% | inhibition at 30 µM (HIV-1 protease [2]): 89.6%

CS(=O)(=O)Nc1cccc(C(c2c(O)c3c(oc2=O)CCCCC3)C2CC2)c1 (centres unmarked) [Example 364, N-[3-[Cyclopropyl(2,5,6,7,8,9-hexahydro-4-hydroxy-2-oxocyclohepta[b]pyran-3-yl)methyl]phenyl]-methanesulfonamide]
pKi (HIV-1 protease [1]): 6.93 | inhibition at 0.37 µM (HIV-1 protease [2]): 17.2% | inhibition at 1.1 µM (HIV-1 protease [2]): 53.5% | inhibition at 3.3 µM (HIV-1 protease [2]): 78.7% | inhibition at 10 µM (HIV-1 protease [2]): 100% | inhibition at 30 µM (HIV-1 protease [2]): 90.2%

Reference: patent publication US5686486A, “4-hydroxy-benzopyran-2-ones and 4-hydroxy-cycloalkyl[b]pyran-2-ones useful to treat retroviral infections” (priority 1995, dated 1997)
